Assay results: patent publication US7473682B2, “Angiogenic peptides and uses thereof” (Ramot at Tel Aviv University Ltd., priority 2003, dated 2009)

Tests used:
KDR = experiment: Real time PCR gene expression in MVECs, KDR; format: cell-based; parameters: key: increased (+); non-increased (−); conditions: 1 ng/ml peptide
Protocol: (§1) Real Time PCR—MVECs from passage 3 were incubated for 24 hours in EBM-MV supplement-free medium (starving media). Following starvation, 1 ng/ml of synthetic peptides LT, QF, SP, TR, YR, and VL and 10 ng/ml of VEGF were added to the plates. Following 1.5 or 6 hours of incubation, total RNA was extracted using TRIsol reagent (Invitrogen Life Technologies, Carlsbad Calif., USA) and 0.8 μg of the extracted RNA was used as a template for reverse transcription (Invitrogen) using random primers (SuperScript III First-Strand Synthesis System for RT-PCR (hvitrogen, Carlsbad Calif., USA) according to the manufacturer's instructions. Resulting cDNAs were subjected to real time PCR amplification using the ABI prism 7000 Sequence Detection System (Applied Biosystems, Foster City, Calif., USA). Oligonucleotide primers were designed using Primer Express Software (Applied Biosystems, Foster City, Calif., USA) according the translated region of VEGF-A (Accession No:NM_003376), VEGF-C (Accession No:NM_005429), KDR (Accession No:NM_002253), FLT-1 (Accession No:NM_002019), HIF-α (Accession No:HSU22431), and GAPDH (Accession No:NM_002046) and are listed in Table 6, hereinbelow. Briefly, a reaction mixture of 20 μl consisting of DDW, oligonucleotide primers (500 nM), cDNA (3 μl), and SYBR Green PCR master kit (Applied Biosystems, Foster City, Calif., USA) was subjected to an amplification program of 15 seconds at 95° C., and 60 seconds at 60° C. for 40 cycles. Results were analyzed using the Sequence Detector Software Version 1 (Applied Biosystenis).
(§2) Peptides effect on gene expression in MVECs—The effect of the synthetic peptides on the expression in MVECs of selected genes (VEGF-A, VEGF-C, KDR, FLT-1 and HIF-1α) related to the VEGF pathway (a major pathway that participated in angiogenic process) was tested. Synthetic peptides were added at 1 ng/ml for 1.5 and 6 hours. After incubation with peptide, RNA was extracted from MVECs and Real Time PCR was performed. Gene expression was calculated as peptide/control (cells without peptide treatment) ratio.

VEGF-A = experiment: Real time PCR gene expression in MVECs, VEGF-A; format: cell-based; parameters: key: increased (+); non-increased (−); conditions: 1 ng/ml peptide
Protocol: as §1, §2

FLT-1 = experiment: Real time PCR gene expression in MVECs, FLT-1; format: cell-based; parameters: key: increased (+); non-increased (−); conditions: 1 ng/ml peptide
Protocol: as §1, §2

HIF-1α = experiment: Real time PCR gene expression in MVECs, HIF-1α; format: cell-based; parameters: key: increased (+); non-increased (−); conditions: 1 ng/ml peptide
Protocol: as §1, §2

ECs (HUVECs) = experiment: EC migration assay with peptide-presenting phages (Chemicon QCM 96-well Migration Assay); format: cell-based, human; conditions: 5 hours; for Migration of activated ECs (phages with ECs in migration chamber): 10^5 or 10^6 phages per well
Protocol: EC migration assay—EC migration was evaluated by the Chemicon QCM 96-well Migration Assay (Chemicon International, Temecula, Calif., USA) according to the manufacturer's instructions. Briefly, the kit's migration chamber comprises an insert membrane with 8 μm pores and a feeder tray containing the peptides as chemoattractants. Cell migration was evaluated by placing the cells in the migration chamber and following their migration to the bottom of the membrane.
For the migration/chemoattractant assay, ECs from passage 3 were incubated for 24 hours on gelatin-coated plates in the presence of the M199 SFM. Following trypsinization, 2×10^4 ECs were incubated for 5 hours in each of the 96 wells of the migration chamber. The peptide-presenting phages (10^5 or 10^6) were added to the feeder tray to chemoattractant the cells without being in physical contact with the cells. Cells which reached the bottom of the membrane (i.e., migratory cells) were dissociated from the membrane following the incubation with a cell detachment buffer. The migratory cells were subsequently lysed and detected by the molecular probe CyQuant GR dye which exerts green fluorescent enhancement when bound to cellular nucleic acid.
For activation migration assays, 10^5 or 10^6 peptide-presenting phages were incubated (for 5 hours) with ECs in the migration chamber. NO phages (unmodified M13 phages) served as negative control in both migration assays. Results were determined by a fluorescent ELISA reader at 480/520 nm (Fluostar BMG Lab Teck) and are presented in net values from which the control values were subtracted.

mouse ischemic hind limb [1] = experiment: Mouse ischemic hind limb model, physiological observations (ladder climbing); format: in vivo; parameters: key: 1 = walk and climb ... 4 = walk with difficulty, cannot climb; conditions: mean score of 10 mice, 10 μg; for Physiological score (ability to climb a ladder) Day 1: 1 = walk and climb ... 4 = walk with difficulties and cannot climb, day 1 post operation; for Physiological score (ability to climb a ladder) Day 4 / Physiological score (ability to climb a ladder) Day 7 / Physiological score (ability to climb a ladder) Day 10: scale 1-4; for Physiological score (ability to climb a ladder) Day 4: day 4 post operation; for Physiological score (ability to climb a ladder) Day 7: day 7 post operation; for Physiological score (ability to climb a ladder) Day 10: day 10 post operation
Protocol: (§3) Mouse ischemic hind limb model—Ischemia was created in the mouse left hind limb by ligation of the femoral artery. The right hind limb served as control. A day after the operation each of the peptides was injected into one site close to the ligation and one site distal to the ligation. Each mouse was treated with each of the peptides in a total amount of 10 μg.
Physiological observations—Ischemic mice were evaluated for their ability to climb a ladder on day 1, 4, 7, and 10-post operation. The scoring system was as follows: 1—walk and climb; 2—walk and climb with some difficulty, 3—walk and cannot climb the ladder; 4—walk with difficulties and cannot climb the ladder.

[2] = system: ears of nude mice and Balb/C mice; experiment: In vivo angiogenesis in a mouse-ear model; conditions: for Number of blood vessels in the ears of injected mice (photographs): 10 μg peptide, subcutaneous injection into ear; for Number of blood vessels: 10 μg/ear, 5 days after inoculation; for Peptide/PBS = ratio between the No. of blood vessels in the peptide-injected ear and in the PBS-injected ear: mouse ears, contralateral ear PBS
Protocol: In Wivo angiogenesis in a mouse-ear model—Ear angiogenesis studies were a modification of an approach described previously (Pettersson, 2000). […] Contralateral ears were injected only with PBS. […] Two days after peptide inoculation, angiogenic effect of peptides could be observed.
Histological sections—Histological sections of the mouse-ears injected with the angiogenic peptides were performed by fixing tissues in 4% buffered formalin. Sections were embedded in paraffin blocks sectioned in 4 μm thick layers and stained with hematoxolin-eosin.

MVECs = experiment: MVEC migration assay with synthetic peptides; format: cell-based; conditions: 5 hours; for Increase in MVECs migration, peptides as chemoattractants: 10 ng/ml; for MVECs migration, direct activation by peptides: 1 ng/ml
Protocol: MVEC migration was evaluated as described above except that MVECs from passage 3 were incubated in EBM-MV SFM. […] The presence of migratory cells was detected using the fluorescent ELISA reader at 480/520 nm (Fluostar BMG Lab Teck) as described in Example 2, hereinabove. […]

mouse ischemic hind limb [3] = experiment: Mouse ischemic hind limb model, blood perfusion (Laser Doppler Imager); format: in vivo; conditions: 14 and 19 days following peptide injection; for The blood perfusion ratio (in percentages) of the ischemic vs. control limbs, Mean: 10 μg
Protocol: as §3
Blood perfusion in ischemic mice—The percent of blood perfusion was measured using a Laser Doppler Imager (PeriMed, Sweden) at 14 and 19 days after peptides injections. The average percent perfusion of each limb was computed and expressed as the ischemic (left)/control (right) blood perfusion ratio.

Sequence	KDR Expression after 1.5 hours (KDR)	VEGF-A Expression after 1.5 hours (VEGF-A)	FLT-1 Expression after 1.5 hours (FLT-1)	HIF Expression after 1.5 hours (HIF-1α)	HIF Expression after 6 hours (HIF-1α)	Migration of activated ECs (phages with ECs in migration chamber) (ECs (HUVECs))	EC migration, phages as chemoattractants on feeder tray (ECs (HUVECs); 10^6 phages per well)	Physiological score (ability to climb a ladder) Day 1 (mouse ischemic hind limb [1])	Physiological score (ability to climb a ladder) Day 4 (mouse ischemic hind limb [1])	Physiological score (ability to climb a ladder) Day 7 (mouse ischemic hind limb [1])	Physiological score (ability to climb a ladder) Day 10 (mouse ischemic hind limb [1])	Number of blood vessels in the ears of injected mice (photographs) [2]	Number of blood vessels [2]	Peptide/PBS = ratio between the No. of blood vessels in the peptide-injected ear and in the PBS-injected ear [2]	Increase in MVECs migration, peptides as chemoattractants (MVECs)	The blood perfusion ratio (in percentages) of the ischemic vs. control limbs, Mean (mouse ischemic hind limb [3])	VEGF-A Expression after 6 hours (VEGF-A)	FLT-1 Expression after 6 hours (FLT-1)	MVECs migration, direct activation by peptides (MVECs)	KDR Expression after 6 hours (KDR)	other results
LLADTTHHRPWT (Phage displayed peptide) [LT]	−	+	+	−	−	induced migration	induce migration as chemoattractants	3.07	2.25	1.6	1.2	increased number of blood vessels	18	3	3.5 fold	78.275 percentages					
QPWLEQAYYSTF (Phage displayed peptide) [QF]	+	+	+	+	−	induced migration	induce migration as chemoattractants	2.83	2	1.6	1.2	increased number of blood vessels	21	0.9	2.4 fold	112.222 percentages	−	−	2.3 folds		Percent of blood perfusion ratio, ischemic/control limb (significance) (mouse ischemic hind limb [3]): significant increase
SAHGTSTGVPWP (Phage displayed peptide)	+	+	+				induce migration as chemoattractants	2.85	2.25	1.75	1.6	increased number of blood vessels	15	1	2 fold	84.478 percentages			2.1 folds		
TLPWLEESYWRP (Phage displayed peptide) [TR]		+	+	+	+		induce migration as chemoattractants	3.05	2.5	1.6	1.4		15	5.5	2 fold	86.006 percentages	−		2.6 folds	+	Vascularization of mouse ear, histology sections ([2]; 10 μg, compared to control): large blood vessel formation and neovascularization
VPWMEPAYQRFL (Phage displayed peptide) [VL]		+	+	+	+			2.75	2	1.6	1.4		14	5.6	2 fold	95.560 percentages	+			+	
YPHIDSLGHWRR (Phage displayed peptide) [YR]	+	+	+	−				2.75	2.5	1.4	1	increased number of blood vessels	11	7.6	2.4 fold	104.349 percentages	−	−	1.8 folds	−	EC migration, phages as chemoattractants on feeder tray (ECs (HUVECs); 10^5 phages per well): induce migration as chemoattractants; Percent of blood perfusion ratio, ischemic/control limb (significance) (mouse ischemic hind limb [3]): significant increase
